# Results as given in ChEMBL document CHEMBL1201862, “PubChem BioAssay data set” (2004).
# The source made the active and inactive calls.
# Tests used:
# [1] = molecular target: Luciferin 4-monooxygenase (Photinus pyralis, UniProt P08659); test: inhibition of purified Photinus pyralis luciferase – biochemical, luminescence, dose response (AID 1891)
# [2] = molecular target: T1, Corticotropin-releasing factor receptor 2/Corticotropin-releasing factor-binding protein (Homo sapiens, UniProt P24387+Q13324); test: activators of CRF receptor 2 with binding protein – uHTS hits, confirmation (AID 602473); assay type: functional; details: read-out: EC50_Mean
# T1 sequence (Q13324 whole entry): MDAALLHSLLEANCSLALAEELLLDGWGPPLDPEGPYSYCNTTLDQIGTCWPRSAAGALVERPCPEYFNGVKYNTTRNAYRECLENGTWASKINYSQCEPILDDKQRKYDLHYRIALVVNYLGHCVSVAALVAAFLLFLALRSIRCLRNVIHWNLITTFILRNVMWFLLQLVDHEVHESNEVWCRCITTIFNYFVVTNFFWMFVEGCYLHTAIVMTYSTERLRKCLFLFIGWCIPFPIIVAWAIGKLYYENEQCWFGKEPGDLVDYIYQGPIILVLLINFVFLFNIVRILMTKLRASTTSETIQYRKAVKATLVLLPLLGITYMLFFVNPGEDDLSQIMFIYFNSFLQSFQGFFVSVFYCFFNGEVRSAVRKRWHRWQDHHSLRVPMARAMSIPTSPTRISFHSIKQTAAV
# T1 sequence (P24387 whole entry): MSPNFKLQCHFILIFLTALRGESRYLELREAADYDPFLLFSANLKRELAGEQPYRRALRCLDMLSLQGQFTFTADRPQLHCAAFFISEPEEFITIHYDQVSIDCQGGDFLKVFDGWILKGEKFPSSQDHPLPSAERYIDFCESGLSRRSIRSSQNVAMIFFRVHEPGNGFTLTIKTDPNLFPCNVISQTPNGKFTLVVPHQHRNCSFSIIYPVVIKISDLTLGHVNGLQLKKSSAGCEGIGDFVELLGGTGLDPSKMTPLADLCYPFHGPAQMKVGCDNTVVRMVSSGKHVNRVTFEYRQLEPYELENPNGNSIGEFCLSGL
# [3] = Luminescence Cell-Based Dose Confirmation HTS to Identify Inhibitors of Platelet Dense Granule Release. [Related pubchem assays: 1663 (Primary HTS), 1678 (Summary of Project)]; assay type: functional
# [4] = molecular target: T1, Corticotropin-releasing factor receptor 2/Corticotropin-releasing factor-binding protein; test: Dose Response confirmation of uHTS hits for small molecule antagonists of the CRF-binding protein and CRF-R2 receptor complex.; assay type: functional; details: read-out: IC50_Mean
# Protein skinhead-1 = molecular target: T2, Protein skinhead-1 (Caenorhabditis elegans, UniProt P34707); assay type: functional
# T2 sequence (P34707 whole entry): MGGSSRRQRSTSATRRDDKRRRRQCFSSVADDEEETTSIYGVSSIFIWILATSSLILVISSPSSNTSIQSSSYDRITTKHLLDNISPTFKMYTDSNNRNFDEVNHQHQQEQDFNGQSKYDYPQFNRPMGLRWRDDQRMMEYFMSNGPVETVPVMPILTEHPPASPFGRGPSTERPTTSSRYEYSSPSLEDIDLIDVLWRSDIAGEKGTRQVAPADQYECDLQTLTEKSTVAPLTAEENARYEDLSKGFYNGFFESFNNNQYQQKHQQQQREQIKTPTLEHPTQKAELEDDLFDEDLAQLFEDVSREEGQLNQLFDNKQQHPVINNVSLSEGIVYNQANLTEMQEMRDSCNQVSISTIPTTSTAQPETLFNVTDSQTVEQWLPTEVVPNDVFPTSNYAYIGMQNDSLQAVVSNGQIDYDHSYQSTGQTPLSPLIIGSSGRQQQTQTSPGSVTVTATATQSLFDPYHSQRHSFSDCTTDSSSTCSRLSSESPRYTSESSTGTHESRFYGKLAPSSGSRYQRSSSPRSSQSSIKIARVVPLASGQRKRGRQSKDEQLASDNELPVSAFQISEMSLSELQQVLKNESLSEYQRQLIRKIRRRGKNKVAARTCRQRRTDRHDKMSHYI
# [5] = viability of uninfected HEp-2 cells – cell-based, HTS, cytotoxicity control for RSV inhibitor project, dose response (AID 2410); assay type: functional; details: human respiratory syncytial virus
# [6] = blockers of bursicon-stimulated LGR2 cAMP reporter – cell-based, HEK293, CRE-luciferase reporter, cherry pick, set 2, dose response (AID 743343); assay type: functional;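 further: transfected cells were stimulated with diluted bursicon conditioned medium after compound addition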
# [7] = blockade of melanocortin 4 receptor signaling – cell-based, plate reader, cherry pick, counter-screen for LGR2 antagonist project, dose response (AID 743444); assay type: functional;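 further: transfected HEK 293 cells stimulated with alpha-MSH peptide; potency of inhibitors of the alpha-MSH evoked signal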
# [8] = Luminescence Cell-Based Dose Response HTS to Identify Activators of Luciferase Translation or Activity in H4 […] Cells. [Related pubchem assays: 1829 (Project Summary), 1814 (Primary HTS)]; assay type: functional
# H4 = test: Luminescence Cell-Based Dose Response HTS to Identify Activators of 5'UTR Stem-Loop Driven Prion Protein mRNA Translation in H4 Neuroglioblastoma Cells. [Related pubchem assays: 1829 (Project Summary), 1814 (Primary HTS)]; assay type: functional; details: Homo sapiens
# [9] = Luminescence Cell-Based Dose Confirmation HTS to Identify Activators of 5'UTR Stem-Loop Driven Alpha-Synuclein mRNA Translation in H4 Neuroglioblastoma Cells. [Related pubchem assays: 1829 (Project Summary), 1814 (Primary HTS)]; assay type: functional
# [10] = molecular target: T3, Rac GTPase-activating protein 1 (Homo sapiens, UniProt Q9H0H5); test: blockers of MgcRacGAP-driven Rac1 GTP hydrolysis – biochemical, ADP Hunter fluorescence, primary and confirmatory, confirmation (AID 624330); assay type: functional
# T3 sequence (Q9H0H5 whole entry): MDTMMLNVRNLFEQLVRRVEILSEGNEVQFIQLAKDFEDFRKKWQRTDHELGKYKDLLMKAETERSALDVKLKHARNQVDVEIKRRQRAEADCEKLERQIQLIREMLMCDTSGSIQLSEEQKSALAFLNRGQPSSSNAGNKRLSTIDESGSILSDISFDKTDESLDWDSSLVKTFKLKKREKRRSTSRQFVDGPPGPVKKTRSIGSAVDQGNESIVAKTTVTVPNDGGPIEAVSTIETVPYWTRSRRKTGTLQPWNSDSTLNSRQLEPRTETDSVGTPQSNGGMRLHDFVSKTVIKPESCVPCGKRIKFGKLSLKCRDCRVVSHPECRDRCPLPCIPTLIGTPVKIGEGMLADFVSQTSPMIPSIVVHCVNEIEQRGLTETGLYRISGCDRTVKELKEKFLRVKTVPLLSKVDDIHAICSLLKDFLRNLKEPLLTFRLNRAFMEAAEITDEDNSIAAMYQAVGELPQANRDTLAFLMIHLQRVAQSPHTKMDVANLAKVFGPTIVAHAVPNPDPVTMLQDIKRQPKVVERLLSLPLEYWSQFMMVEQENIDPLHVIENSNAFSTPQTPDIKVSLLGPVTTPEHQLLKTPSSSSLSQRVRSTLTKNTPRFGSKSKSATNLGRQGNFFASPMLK
# [11] = non-specific 3'UTR reporter inhibition in Clone20-Shn3RL – cell-based, Renilla luciferase, cherry-picked, counter-screen for Shn3 inhibitor project, dose response (AID 624133); assay type: functional
# [12] = reduction of Shn3 3'UTR-driven luciferase in osteoblasts – cell-based, Clone20 osteoblasts, firefly luciferase, cherry-picked, dose response (AID 624132); assay type: functional;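 further: firefly luciferase luminescence from reporter carrying the Shn3 3'UTR in osteoblasts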
# [13] = viability of PTEN-deleted HCT116 cells – cell-based, HCT116 PTEN knockout, dose response (AID 1047); assay type: functional;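 further: HCT116 colon tumor cells with PTEN knocked out; cells exposed to compound for 60 hours before readout; potency for loss of cell viability measured by luminescence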
# [14] = viability of HCT116 lacking mutant beta-catenin – cell-based, human colon tumor, dose response (AID 1045); assay type: functional;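 further: HCT116 colon tumor cells with beta catenin knocked out; cells exposed to compound for 60 hours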
# [15] = molecular target: T4, Zinc finger protein mex-5 (Caenorhabditis elegans, UniProt Q9XUB2); test: potency of MEX-5 RNA-binding blockers – biochemical, C. elegans, fluorescence polarization, dose response (AID 1960)
# T4 sequence (Q9XUB2 whole entry): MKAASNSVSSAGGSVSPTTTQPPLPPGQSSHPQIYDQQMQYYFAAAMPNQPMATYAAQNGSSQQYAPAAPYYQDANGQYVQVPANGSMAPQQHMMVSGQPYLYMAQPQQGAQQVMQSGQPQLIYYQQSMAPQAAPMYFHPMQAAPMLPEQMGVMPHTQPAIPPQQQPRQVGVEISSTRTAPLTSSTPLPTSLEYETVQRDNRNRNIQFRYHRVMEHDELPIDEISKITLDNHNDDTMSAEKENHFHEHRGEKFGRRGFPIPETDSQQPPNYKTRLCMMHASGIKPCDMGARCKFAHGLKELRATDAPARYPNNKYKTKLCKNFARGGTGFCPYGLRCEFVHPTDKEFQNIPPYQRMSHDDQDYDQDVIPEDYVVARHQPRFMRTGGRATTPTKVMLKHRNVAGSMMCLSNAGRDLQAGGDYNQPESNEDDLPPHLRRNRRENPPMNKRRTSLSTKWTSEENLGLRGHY
# [16] = molecular target: T5, RNA-binding protein pos-1 (Caenorhabditis elegans, UniProt G5EF15); test: disruptors of C. elegans POS-1 RNA interaction – biochemical, fluorescence polarization, dose response (AID 1964);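 further: purified POS-1 fused to maltose binding protein made in E. coli; potency of compounds blocking POS-1 binding to fluorescent RNA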
# T5 sequence (G5EF15 whole entry): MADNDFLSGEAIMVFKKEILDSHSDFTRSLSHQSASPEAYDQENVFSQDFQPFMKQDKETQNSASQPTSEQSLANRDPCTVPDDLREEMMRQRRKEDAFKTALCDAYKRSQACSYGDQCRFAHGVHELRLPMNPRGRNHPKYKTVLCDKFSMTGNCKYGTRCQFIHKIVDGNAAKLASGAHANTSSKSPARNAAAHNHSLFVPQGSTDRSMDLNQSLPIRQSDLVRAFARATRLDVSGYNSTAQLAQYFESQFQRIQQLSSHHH
# Sequence of Luciferin 4-monooxygenase (P08659 whole entry): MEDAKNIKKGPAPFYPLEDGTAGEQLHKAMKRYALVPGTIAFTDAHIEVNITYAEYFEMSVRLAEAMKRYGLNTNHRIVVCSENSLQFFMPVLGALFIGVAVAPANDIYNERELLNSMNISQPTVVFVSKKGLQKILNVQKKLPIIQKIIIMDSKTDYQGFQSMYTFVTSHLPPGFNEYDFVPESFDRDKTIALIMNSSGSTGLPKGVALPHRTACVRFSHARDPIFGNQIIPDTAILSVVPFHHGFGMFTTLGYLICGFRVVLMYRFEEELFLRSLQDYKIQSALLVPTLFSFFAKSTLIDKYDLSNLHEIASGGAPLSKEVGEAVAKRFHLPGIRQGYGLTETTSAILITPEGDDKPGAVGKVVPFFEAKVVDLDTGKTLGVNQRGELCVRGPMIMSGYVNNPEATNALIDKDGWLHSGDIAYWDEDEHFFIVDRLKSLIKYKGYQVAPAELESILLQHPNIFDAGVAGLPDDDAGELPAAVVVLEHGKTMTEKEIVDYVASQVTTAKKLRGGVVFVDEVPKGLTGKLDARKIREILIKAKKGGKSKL
smiles,measurement,setting,value
COc1cc(CNc2ccccc2SC)ccc1O,EC50,[1],> 112 µM (not active)
same,EC50,[2],> 53 µM (inactive)
same,EC50,[3],> 112 µM (not active)
same,IC50,[4],> 47.1 µM (inactive)
O=C(Nc1nc2c(ccc3ccccc32)s1)c1ccco1,IC50,Protein skinhead-1,14.9 µM (active)
same,CC50,[5],14.8 µM (active)
CN(C)c1ccc(C2NC(=O)c3ccccc3N2)cc1 (stereo unspecified),AC50,[6],7.27 µM (active)
same,AC50,[7],9.95 µM (active)
c1ccc(CSc2nnc(-c3ccco3)n2Cc2ccccc2)cc1,EC50,[8],6.57 µM (active)
same,EC50,H4,7.76 µM (active)
same,EC50,[9],0.166 µM (active)
COc1cc(CN2CCN(C(=O)CC(C)C)CC2)cc(OC)c1O,IC50,[10],78.6 µM (active)
O=C(CNS(=O)(=O)c1cccs1)Nc1ccc2c(c1)OCCO2,EC50,[8],7.8 µM (active)
same,EC50,H4,2.85 µM (active)
same,EC50,[9],11.6 µM (active)
CC(=O)N(C1=NCCCS1)c1ccc(F)cc1,IC50,Protein skinhead-1,> 100 µM (inactive)
C[n+]1cn(/N=C/c2ccccc2)c2ccccc21,EC50,[8],> 120 µM (not active)
same,EC50,H4,57.7 µM (active)
same,EC50,[9],17.4 µM (active)
CC(C)CCNC(=O)c1cc2c(O)nc3ccccc3c2s1,AC50,[11],18.4 µM (active)
same,AC50,[12],41.5 µM (active)
CCCNC(=O)c1c(NC(=O)C2COc3ccccc3O2)sc2c1CCCC2 (stereo unspecified),EC50,[13],8.59 µM (active)
same,EC50,[14],9.98 µM (active)
FC(F)(F)c1ccccc1Cc1c(-c2ccccc2)nc2ccc(Br)cn12,IC50,Protein skinhead-1,> 100 µM (inactive)
Brc1ccc(-c2cn3ccccc3n2)s1,IC50,Protein skinhead-1,12.7 µM (active)
COc1ccc(NC2CCCN(C(=O)CN3CCOC3=O)C2)cc1 (stereo unspecified),IC50,[10],109 µM (active)
COc1cc(/C=N/NC(=O)C(=O)N2CCCC2)ccc1O,IC50,[10],26.7 µM (active)
NS(=O)(=O)c1cc2c(cc1Cl)NC(C1C[C@H]3C=C[C@@H]1C3)NS2(=O)=O (stereo partly specified),EC50,[8],> 120 µM (not active)
same,EC50,H4,> 120 µM (not active)
same,EC50,[9],> 120 µM (not active)
CC(C)CC(=O)Nc1ccc(Nc2ccccc2)cc1,IC50,Protein skinhead-1,> 100 µM (inactive)
COc1ccc2cc(C(=O)N3CCN(C)CC3)[nH]c2c1,EC50,[8],9.45 µM (active)
same,EC50,H4,> 120 µM (not active)
same,EC50,[9],13.3 µM (active)
CCOC(=O)N1CCC(N2CCN(S(=O)(=O)c3ccc4ccccc4c3)CC2)CC1,IC50,[10],151 µM (active)
Cc1cc(C)c(OCC(O)CN2CCN(C(=O)c3ccccc3)CC2)c(C)c1 (stereo unspecified),IC50,[10],139 µM (active)
Cc1ccc(CCNC(=O)C2CCC(=O)N2C2CCCC2)cc1 (stereo unspecified),EC50,[2],> 53 µM (inactive)
same,IC50,[4],> 47.1 µM (inactive)
COc1cc2nc(C3CC3)n(NC(=O)c3ccc(Cl)cc3)c(=O)c2cc1OC,IC50,Protein skinhead-1,> 100 µM (inactive)
C=C(C)CN1C(=O)C(O)(CC(=O)c2ccc3c(c2)OCCO3)c2ccccc21 (stereo unspecified),EC50,[13],22.1 µM (active)
same,EC50,[14],22.7 µM (active)
O=C1Nc2cc(Cl)c(Cl)cc2N(O)N1c1ccc(Cl)cc1,EC50,[8],> 120 µM (not active)
same,EC50,H4,> 120 µM (not active)
same,EC50,[9],> 120 µM (not active)
NNC(=S)NC1CCS(=O)(=O)C1 (stereo unspecified),EC50,[2],> 53 µM (inactive)
same,IC50,[4],> 47.1 µM (inactive)
Cc1ccccc1OCC(=O)OCC(=O)c1c[nH]c2ccccc12,EC50,[2],> 53 µM (inactive)
same,IC50,[4],> 47.1 µM (inactive)
CCc1cc(SC#N)cc(CC)c1NC(=O)CCl,EC50,[13],8.97 µM (active)
same,EC50,[14],8.43 µM (active)
COc1ccc(C2=NN(CN3C(=O)C(=O)c4ccccc43)C(c3ccc(OC)cc3)C2)cc1 (stereo unspecified),EC50,H4,0.112 µM (active)
same,EC50,[9],14.6 µM (active)
COc1cccc(C2CCCN2Cc2nc(-c3cnccn3)no2)c1 (stereo unspecified),EC50,[2],> 53 µM (inactive)
same,IC50,[4],> 47.1 µM (inactive)
ClC(=C\c1ccccc1)/C=N/N1CCN(c2ccccn2)CC1,EC50,[8],36.5 µM (active)
same,EC50,H4,8.35 µM (active)
same,EC50,[9],0.347 µM (active)
COc1ccc(N2CC2c2ccncc2)cc1 (stereo unspecified),IC50,[10],144 µM (active)
Cc1ccc2nc3sc(C(=O)N4CCCc5ccccc54)c(N)c3cc2c1,EC50,[8],7.55 µM (active)
same,EC50,H4,> 120 µM (not active)
same,EC50,[9],> 120 µM (not active)
same,EC50,[15],> 300 µM (inconclusive)
same,EC50,[16],> 300 µM (not active)
Fc1ccccc1Nc1nc2ccccc2n2nnnc12,EC50,[8],95.3 µM (active)
same,EC50,H4,62.6 µM (active)
same,EC50,[9],26.2 µM (active)
